Consider one compound from patent US11918667B2, “Zirconium-based cluster as an antiperspirant and deodorant active” (Colgate-Palmolive Company, priority 2017, dated 2024).

The nature of data set [1]: pH of zirconium oxychloride / arginine solutions. The data set is classed as physicochemical. The settings on record: 1% zirconium oxychloride with varied arginine, 10 g samples, incubated 1 day at 50° C., cooled to room temperature. The protocol: Samples were prepared according to Table 1. Water was added to zirconium oxychloride (ZrOCl2.8H2O, MW 322.25) in a glass jar to yield a clear solution containing 1% zirconium oxychloride. Under stirring, L-arginine was slowly added to prevent clumping of arginine as well as large fluctuations in localized pH values. The solutions were incubated for 1 day at 50° C. Then the solutions were cooled to room temperature. Solid gel was formed in samples with the molar ratio of arginine to zirconium oxychloride of 2-4.
A 100 g batch was prepared according to Table 2. 1% w/w zirconium oxychloride (ZrOCl2.8H2O, MW 322.25) and arginine were mixed in aqueous solution with the molar ratio of arginine to zirconium oxychloride of 1:1.
The zirconium oxychloride cluster was prepared as described in Example 1. The prepared zirconium oxychloride cluster was purified by gel permeability chromatograph (GPC). GPC column was prepared using Bio-Rad P2 gel with 5 μm particle size. Approximately 10 mL of prepared solution was filtered (0.45 μm) and loaded on the column using a HPLC pump at 0.2 mL/min. The mobile phase of the GPC chromatography was deionized water. Elution fractions were collected in intervals and monitored using SEC-RI. […] The pH of the GPC fraction (1160-1300 min) was 4.5. […] 10 g of this fraction was freeze dried to obtain purified powder for subsequent PXRD analysis.

The conditions of data set [2]: cited from earlier work.

Turning to `[Cl-].[Cl-].[O]=[Zr+2]` [Zr, zirconium oxychloride], the pH in data set [1] stood at 1.39. In data set [2] (solution of zirconium oxychloride which is effective as an antiperspirant (background)), the pH of solution entry was “about 0.8”. Moreover, in data set [2] (zirconium oxychloride alone (general statement)), the pH value is less than 2.
